Test results: ChEMBL document CHEMBL1142498 (J Med Chem, 2008)

Key:
[1] = molecular target: Sodium-dependent serotonin transporter (Homo sapiens, UniProt P31645); format: cell-based, JAR
Description: Inhibition of 5-HT transporter-mediated [3H]5HT uptake in human Jar cells

[2] = molecular target: T1, 5-hydroxytryptamine receptor 1A (Homo sapiens, UniProt P08908)
T1 sequence (P08908 whole entry): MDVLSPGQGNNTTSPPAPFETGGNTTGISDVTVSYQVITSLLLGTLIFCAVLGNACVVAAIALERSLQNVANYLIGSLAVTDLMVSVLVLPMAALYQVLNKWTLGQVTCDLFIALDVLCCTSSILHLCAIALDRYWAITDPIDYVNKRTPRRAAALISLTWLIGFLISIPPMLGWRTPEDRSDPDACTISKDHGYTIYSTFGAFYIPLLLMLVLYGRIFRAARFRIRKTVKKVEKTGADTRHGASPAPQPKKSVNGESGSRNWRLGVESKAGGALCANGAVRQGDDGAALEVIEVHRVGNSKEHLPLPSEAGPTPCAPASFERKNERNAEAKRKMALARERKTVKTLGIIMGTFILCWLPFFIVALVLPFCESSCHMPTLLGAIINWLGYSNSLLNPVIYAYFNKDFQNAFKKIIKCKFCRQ
Description: Activity at human cloned 5HT1A receptor expressed in CHO cells assessed as blockade of 5-HT-stimulated [35S]GTPgammaS binding

Rattus norvegicus = species on record: Rattus norvegicus; test: Displacement of [3H]prazosin from alpha1 adrenergic receptor in Sprague-Dawley rat cortical membrane at 1 uM
[3] = molecular target: Sodium-dependent serotonin transporter (Rattus norvegicus, UniProt P31652)
Sodium-dependent serotonin transporter (Rattus norvegicus, UniProt P31652), sequence (P31652 whole entry): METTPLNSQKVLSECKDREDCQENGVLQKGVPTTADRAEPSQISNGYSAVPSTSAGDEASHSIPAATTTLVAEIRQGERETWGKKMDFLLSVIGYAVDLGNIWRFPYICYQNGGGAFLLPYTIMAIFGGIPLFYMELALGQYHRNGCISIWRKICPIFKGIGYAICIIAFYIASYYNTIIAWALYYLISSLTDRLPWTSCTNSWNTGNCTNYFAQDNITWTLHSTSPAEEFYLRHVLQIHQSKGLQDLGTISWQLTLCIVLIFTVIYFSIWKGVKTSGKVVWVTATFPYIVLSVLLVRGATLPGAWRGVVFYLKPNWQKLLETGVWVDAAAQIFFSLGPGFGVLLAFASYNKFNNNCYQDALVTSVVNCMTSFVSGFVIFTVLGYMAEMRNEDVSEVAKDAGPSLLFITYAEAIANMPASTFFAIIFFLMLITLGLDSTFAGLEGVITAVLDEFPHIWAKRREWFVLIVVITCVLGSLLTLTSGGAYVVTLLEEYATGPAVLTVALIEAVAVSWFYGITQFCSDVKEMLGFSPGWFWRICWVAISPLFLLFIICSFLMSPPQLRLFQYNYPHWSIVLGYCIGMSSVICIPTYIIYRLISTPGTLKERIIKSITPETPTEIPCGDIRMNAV
Description: Displacement of [3H]paroxetine from serotonin transporter in Sprague-Dawley rat frontal cortical membrane

Sodium-dependent serotonin transporter (Homo sapiens, UniProt P31645), sequence (P31645 whole entry): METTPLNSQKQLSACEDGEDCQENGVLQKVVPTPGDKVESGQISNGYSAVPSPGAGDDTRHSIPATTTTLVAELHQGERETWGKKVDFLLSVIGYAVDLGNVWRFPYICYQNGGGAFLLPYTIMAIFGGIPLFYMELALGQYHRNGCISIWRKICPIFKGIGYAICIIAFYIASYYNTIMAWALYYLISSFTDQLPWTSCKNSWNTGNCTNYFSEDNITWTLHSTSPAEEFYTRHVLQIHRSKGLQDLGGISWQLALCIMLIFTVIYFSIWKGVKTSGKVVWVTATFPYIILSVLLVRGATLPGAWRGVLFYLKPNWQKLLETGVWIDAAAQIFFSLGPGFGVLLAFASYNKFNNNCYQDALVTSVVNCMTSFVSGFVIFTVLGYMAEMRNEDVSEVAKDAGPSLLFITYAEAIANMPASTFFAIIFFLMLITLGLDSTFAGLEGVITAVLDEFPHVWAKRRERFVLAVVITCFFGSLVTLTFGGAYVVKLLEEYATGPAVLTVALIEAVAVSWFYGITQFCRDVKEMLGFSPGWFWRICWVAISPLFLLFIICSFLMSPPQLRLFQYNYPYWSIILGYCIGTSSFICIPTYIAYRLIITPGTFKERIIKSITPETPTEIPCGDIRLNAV

Row | Structure (SMILES) | IC50 [1] [nM] | Activity (Rattus norvegicus) [%] | further results
1 | CC(CCc1c[nH]c2ccc(F)cc12)N(CC1CC1)C1COc2c(F)ccc(C(N)=O)c2C1 (single isomer, unassigned; (-)) [listing 1 of 2 here] | 193 |  | IC50 [2]: 333 nM
2 | CC(CCc1c[nH]c2ccc(F)cc12)N(CC1CC1)C1COc2c(F)ccc(C(N)=O)c2C1 (single isomer, unassigned; (+)) [listing 1 of 2 here] |  | 7 | 
3 | CCCN(CCCCn1ccc2c(F)cccc21)C1COc2c(F)ccc(C(N)=O)c2C1 (stereo not drawn) | > 1000 | 23 | 
4 | O=C(NC1CCC1)c1ccc(F)c2c1CC(N(CCCc1c[nH]c3ccc(F)cc13)C1CCC1)CO2 (stereo not drawn) | 70.6 | 12 | Ki [3]: 7.26 nM
5 | NC(=O)c1ccc(F)c2c1CC(N(CCCCn1ccc3ccc(F)cc31)C1CCC1)CO2 (stereo not drawn) | > 1000 | 7 | 
6 | NC(=O)c1ccc(F)c2c1C[C@@H](N(CCCc1c[nH]c3ccc(F)cc13)C1CCC1)CO2 |  | 21 | 
7 | NC(=O)c1ccc(F)c2c1C[C@@H](N(CC1CC1)CC1CCc3[nH]c4ccc(F)cc4c3C1)CO2 (stereo in doubt; 59a) [listing 1 of 2 here] |  | 3 | 
8 | CCCN(CC1CCc2[nH]c3ccc(F)cc3c2C1)[C@H]1COc2c(F)ccc(C(N)=O)c2C1 (single isomer, unassigned; (+)) [listing 1 of 2 here] |  | 15 | 
9 | NC(=O)c1ccc(F)c2c1CC(N(CCCCn1ccc3c(F)cccc31)C1CCC1)CO2 (stereo not drawn) | 103 | 5 | 
10 | CCCN(CCCc1c[nH]c2ccc(F)cc12)[C@H]1COc2c(F)ccc(OC)c2C1 | 379 | 50 | 
11 | NC(=O)c1ccc(F)c2c1C[C@@H](NCC1CCc3[nH]c4ccc(F)cc4c3C1)CO2 (stereo in doubt; 57a) [listing 1 of 2 here] |  | 23 | 
12 | CCCN(CCCc1c[nH]c2ccc(F)cc12)[C@@H]1COc2c(F)ccc(OC)c2C1 | 452 |  | 
13 | N#Cc1ccc2[nH]cc(CCCN(C3CCC3)C3COc4c(F)ccc(C(N)=O)c4C3)c2c1 (single isomer, unassigned; (+)) |  | 27 | 
14 | NC(=O)c1cccc2c1CC(N(CCCc1c[nH]c3ccc(F)cc13)C1CCC1)CO2 (stereo in doubt; (+)-35e) [listing 1 of 2 here] | 28.3 |  | 
15 | NC(=O)c1ccc(F)c2c1C[C@@H](N(CC1CC1)CC1CCc3[nH]c4ccc(F)cc4c3C1)CO2 (stereo in doubt; 59b) [listing 1 of 2 here] |  | 22 | 
16 | CCCN(CCCc1c[nH]c2ccc(F)cc12)C1COc2c(F)ccc(C(=O)NC)c2C1 (stereo not drawn) | 24.3 |  | Ki [3]: 2.4 nM
17 | CNC(=O)c1ccc(F)c2c1CC(N(CCCc1c[nH]c3ccc(F)cc13)C1CCC1)CO2 (stereo not drawn) | 15 | 27 | Ki [3]: 8.3 nM
18 | NC(=O)c1ccc(F)c2c1CC(N(CCCc1c[nH]c3c(F)cc(F)cc13)C1CCC1)CO2 (single isomer, unassigned; (+)) [listing 1 of 2 here] |  | 5 | 
19 | CCCN(CCCCn1ccc2cccc(F)c21)C1COc2c(F)ccc(C(N)=O)c2C1 (stereo not drawn) | 435 | 39 | 

Row | Structure (SMILES) | IC50 [1] [nM] | Activity (Rattus norvegicus) [%] | further results
20 | NC(=O)c1cccc2c1CC(N(CCCc1c[nH]c3ccc(F)cc13)C1CCC1)CO2 (stereo in doubt; 35e) | 114 |  | Ki [3]: 9.55 nM
21 | NC(=O)c1ccc(F)c2c1CC(N(CCCc1c[nH]c3c(Cl)cccc13)C1CCC1)CO2 (stereo not drawn) | > 1000 | 29 | IC50 [2]: > 1000 nM
22 | CCCN(CCCCn1ccc2cc(F)ccc21)C1COc2c(F)ccc(C(N)=O)c2C1 (stereo not drawn) | > 1000 |  | 
23 | NC(=O)c1cccc2c1CC(N(CCCc1c[nH]c3ccc(F)cc13)C1CCC1)CO2 (single isomer, unassigned; (-)) |  | 10 | 
24 | NC(=O)c1ccc(F)c2c1CC(N(CCCCn1ccc3cc(F)ccc31)CC1CC1)CO2 (stereo not drawn) | > 1000 |  | 
25 | CCCN(CC1CCc2[nH]c3ccc(F)cc3c2C1)[C@H]1COc2c(F)ccc(C(N)=O)c2C1 (stereo in doubt; 58a) [listing 1 of 2 here] | > 1000 |  | Ki [3]: > 1000 nM; IC50 [2]: > 1000 nM
26 | NC(=O)c1cccc2c1CC(N(CCCc1c[nH]c3ccc(F)cc13)C1CCC1)CO2 (stereo in doubt; (+)-35e) [listing 2 of 2 here] |  | 6 | 
27 | CCCN(CCCCn1ccc2ccc(F)cc21)C1COc2c(F)ccc(C(N)=O)c2C1 (stereo not drawn) | 776 | 15 | 
28 | NC(=O)c1ccc(F)c2c1CC(N(CCCCn1ccc3cccc(F)c31)C1CCC1)CO2 (stereo not drawn) | > 1000 | 14 | IC50 [2]: > 1000 nM
29 | NC(=O)c1ccc(F)c2c1CC(N(CCCCn1ccc3c(F)cccc31)CC1CC1)CO2 (stereo not drawn) | > 1000 | 18 | IC50 [2]: > 1000 nM
30 | COC(=O)c1ccc(F)c2c1CC(N(CCCc1c[nH]c3ccc(F)cc13)C1CCC1)CO2 (stereo not drawn) | 1860 |  | 
31 | O=C(NC1CC1)c1ccc(F)c2c1CC(N(CCCc1c[nH]c3ccc(F)cc13)C1CCC1)CO2 (stereo not drawn) | 69.6 | 12 | Ki [3]: 8.05 nM
32 | COc1cccc2c1C[C@@H](N(CCCc1c[nH]c3ccc(F)cc13)C1CCC1)CO2 |  | 15 | 
33 | CN(C)C(=O)c1ccc(F)c2c1CC(N(CCCc1c[nH]c3ccc(F)cc13)C1CCC1)CO2 (stereo not drawn) | 218 |  | IC50 [2]: > 2000 nM
34 | NC(=O)c1ccc(F)c2c1CC(N(CCCc1c[nH]c3c(F)cc(F)cc13)C1CCC1)CO2 (single isomer, unassigned; (-)) | 71.6 |  | IC50 [2]: 206 nM
35 | CCCN(CCCc1c[nH]c2ccc(F)cc12)[C@H]1COc2c(F)ccc(C(N)=O)c2C1 |  |  | IC50 [2]: 405 nM
36 | NC(=O)c1ccc(F)c2c1C[C@@H](NCC1CCc3[nH]c4ccc(F)cc4c3C1)CO2 (stereo in doubt; 57a) [listing 2 of 2 here] | 291 |  | 
37 | NC(=O)c1ccc(F)c2c1C[C@@H](N(CC1CC1)CC1CCc3[nH]c4ccc(F)cc4c3C1)CO2 (stereo in doubt; 59b) [listing 2 of 2 here] |  |  | IC50 ([1]; jar): > 1000 nM
38 | COc1cccc2c1CC(N(CCCc1c[nH]c3ccc(F)cc13)C1CCC1)CO2 (stereo not drawn) |  | 15 | IC50 [2]: > 2000 nM

Row | Structure (SMILES) | IC50 [1] [nM] | Activity (Rattus norvegicus) [%] | further results
39 | NC(=O)c1ccc(F)c2c1CC(N(CCCc1c[nH]c3ccc(F)cc13)C1CCC1)CO2 (stereo not drawn) |  | 16 | 
40 | CCCNC(=O)c1ccc(F)c2c1CC(N(CCCc1c[nH]c3ccc(F)cc13)C1CCC1)CO2 (stereo not drawn) | 32.7 | 21 | Ki [3]: 7.96 nM
41 | CC(CCc1c[nH]c2ccc(F)cc12)N(CC1CC1)C1COc2c(F)ccc(C(N)=O)c2C1 (single isomer, unassigned; (+)) [listing 2 of 2 here] | 162 |  | 
42 | CCCN(CC1CCc2[nH]c3ccc(F)cc3c2C1)[C@H]1COc2c(F)ccc(C(N)=O)c2C1 (single isomer, unassigned; (+)) [listing 2 of 2 here] |  |  | IC50 ([1]; jar): > 1000 nM
43 | NC(=O)c1ccc(F)c2c1CC(N(CCCc1c[nH]c3ccc(Cl)cc13)C1CCC1)CO2 (stereo not drawn) | 612 | 20 | 
44 | CCCN(CC1CCc2[nH]c3ccc(F)cc3c2C1)[C@H]1COc2c(F)ccc(C(N)=O)c2C1 (stereo in doubt; 58a) [listing 2 of 2 here] |  | 5 | 
45 | NC(=O)c1ccc(F)c2c1CC(N(CCCCn1ccc3cccc(F)c31)CC1CC1)CO2 (stereo not drawn) | 138 | 27 | 
46 | COc1cccc2c(CCCN(C3CCC3)C3COc4c(F)ccc(C(N)=O)c4C3)c[nH]c12 (stereo not drawn) | > 1000 | 15 | Ki [3]: > 1000 nM
47 | NC(=O)c1ccc(F)c2c1CC(N(CCCc1c[nH]c3cc(F)ccc13)C1CCC1)CO2 (stereo not drawn) | 899 | 30 | 
48 | NC(=O)c1ccc(F)c2c1CC(N(CCCc1c[nH]c3c(F)cc(F)cc13)C1CCC1)CO2 (single isomer, unassigned; (+)) [listing 2 of 2 here] | 225 |  | IC50 [2]: > 1000 nM
49 | NC(=O)c1ccc(Cl)c2c1CC(N(CCCc1c[nH]c3ccc(F)cc13)C1CCC1)CO2 (single isomer, unassigned; (-)) |  | 22 | 
50 | NC(=O)c1ccc(F)c2c1C[C@@H](NCC1CCc3[nH]c4ccc(F)cc4c3C1)CO2 (stereo in doubt; 57b) | > 1000 |  | 
51 | N#Cc1ccc2[nH]cc(CCCN(C3CCC3)C3COc4c(F)ccc(C(N)=O)c4C3)c2c1 (single isomer, unassigned; (-)) |  | 19 | 
52 | CC(CCc1c[nH]c2ccc(F)cc12)N(CC1CC1)C1COc2c(F)ccc(C(N)=O)c2C1 (single isomer, unassigned; (-)) [listing 2 of 2 here] |  | 15 | 
53 | NC(=O)c1ccc(F)c2c1CC(N(CCCCn1ccc3ccc(F)cc31)CC1CC1)CO2 (stereo not drawn) | > 1000 |  | Ki [3]: 9.96 nM
54 | NC(=O)c1ccc(F)c2c1CC(N(CCCCn1ccc3cc(F)ccc31)C1CCC1)CO2 (stereo not drawn) | > 1000 |  | IC50 [2]: > 1000 nM
55 | NC(=O)c1ccc(F)c2c1C[C@@H](N(CC1CC1)CC1CCc3[nH]c4ccc(F)cc4c3C1)CO2 (stereo in doubt; 59a) [listing 2 of 2 here] | > 1000 |  | IC50 [2]: > 1000 nM
56 | CCCN(CCCc1c[nH]c2ccc(F)cc12)[C@@H]1COc2c(F)ccc(C(N)=O)c2C1 |  | 46 | 
